Tests used:
S1P lyase = molecular target: T1, S1P lyase (Rattus norvegicus, UniProt Q8CHN6); assay: S1P lyase inhibitory ability in rat (thymus gland extract after oral administration); type: in vivo; settings: thymus gland extract of orally dosed rats, [3H]dhS1P substrate, 37° C. for 1 hour
T1 construct: The excised thymus gland was crushed; from tissue; host or cells: thymus gland of male LEW/Crj rats (extract supernatant)
T1 sequence (Q8CHN6 1-568): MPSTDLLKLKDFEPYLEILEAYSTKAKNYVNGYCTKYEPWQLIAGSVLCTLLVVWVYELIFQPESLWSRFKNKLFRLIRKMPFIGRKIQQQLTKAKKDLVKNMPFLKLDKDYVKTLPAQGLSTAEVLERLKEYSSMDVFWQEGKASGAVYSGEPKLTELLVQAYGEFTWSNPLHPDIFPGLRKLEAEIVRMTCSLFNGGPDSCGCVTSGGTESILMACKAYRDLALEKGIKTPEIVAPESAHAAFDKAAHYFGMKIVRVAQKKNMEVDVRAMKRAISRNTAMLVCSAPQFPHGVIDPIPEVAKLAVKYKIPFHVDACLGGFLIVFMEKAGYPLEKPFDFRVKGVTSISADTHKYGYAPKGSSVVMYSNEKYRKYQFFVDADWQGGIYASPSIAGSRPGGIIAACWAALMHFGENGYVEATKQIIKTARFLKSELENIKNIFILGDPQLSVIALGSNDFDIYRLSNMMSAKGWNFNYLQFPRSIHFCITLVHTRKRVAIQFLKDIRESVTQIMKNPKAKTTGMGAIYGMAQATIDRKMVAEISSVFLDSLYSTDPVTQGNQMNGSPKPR
Experimental: Male LEW/Crj rats at 3 or 6 weeks old were purchased from Charles River Laboratory Japan Inc. The rats were acclimatized for a week before the start of experiments. The rats were used for the experiments at 3 or 5 rats per one group. A necessary amount of a compound was weighed and suspended in a 0.5% MC solution by using a mortar and a muddler, or a homogenizer. A liquid for administration was prepared so as to be 5 mL per 1 kg body weight. The prepared solution was administered once by oral gavage. […] The blood was immediately put into a vacuum-sealed blood collection tube coated with an anticoagulant (EDTA-2K) (Nipro Corporation) and mixed. The sample was handled under room temperature condition until measurement. The number of the lymphocytes was measured by using an automatic hemacytometer (ADVIA120, Siemens Healthcare Diagnostics K. K.). […]
The excised thymus gland was crushed by either a method including using zirconia beads in the presence of a homogenize buffer (50 mM HEPES-NaOH (pH=7.4), 0.15 M NaCl, 10% Glycerol, 1 mM EDTA, 1 mM DTT and complete protease inhibitor cocktail (Roche, #4693132)) or a method including chopping up the thymus gland and thereafter using a Potter-Elvehjem homogenizer. […] The protein amount in the supernatant was quantified by the Bradford method, and the supernatant was flash-freezed with liquid nitrogen and then stored at −80° C. […]

[1] = system: lymphocytes in the peripheral blood; assay: Variation in number of lymphocytes in peripheral blood in rat; type: in vivo; settings: male LEW/Crj rats, single oral gavage, suspension in 0.5% MC solution
Experimental: Male LEW/Crj rats at 3 or 6 weeks old were purchased from Charles River Laboratory Japan Inc. The rats were acclimatized for a week before the start of experiments. The rats were used for the experiments at 3 or 5 rats per one group. A necessary amount of a compound was weighed and suspended in a 0.5% MC solution by using a mortar and a muddler, or a homogenizer. A liquid for administration was prepared so as to be 5 mL per 1 kg body weight. The prepared solution was administered once by oral gavage. […] The blood was immediately put into a vacuum-sealed blood collection tube coated with an anticoagulant (EDTA-2K) (Nipro Corporation) and mixed. The sample was handled under room temperature condition until measurement. The number of the lymphocytes was measured by using an automatic hemacytometer (ADVIA120, Siemens Healthcare Diagnostics K. K.). At the time of blood collection, the thymus gland was also excised.

SMILES | S1P lyase activity in the thymus gland (S1P lyase) | number of lymphocytes in the peripheral blood [1]
CC(=O)c1nc(COP(=O)(O)O)c(C)[nH]1 [Example 2, Phosphoric acid mono-(2-acetyl-5-methyl-1H-imidazol-4-ylmethyl) ester and phosphoric acid mono-(2-acetyl-5-methyl-3H-imidazol-4-ylmethyl) ester] | decreased SIP lyase activity in the thymus gland | reduced the number of lymphocytes in the peripheral blood
CC(=O)c1nc(COP(=O)(O)O)c[nH]1 [Example 1, Phosphoric acid mono-(2-acetyl-1H-imidazol-4-ylmethyl) ester and phosphoric acid mono-(2-acetyl-3H-imidazol-4-ylmethyl) ester] | decreased SIP lyase activity in the thymus gland | reduced the number of lymphocytes in the peripheral blood
O=P(O)(O)OCc1c[nH]c(-c2ccon2)n1 [Example 4, Phosphoric acid mono-(2-isoxazol-3-yl-1H-imidazol-4-ylmethyl) ester and phosphoric acid mono-(2-isoxazol-3-yl-3H-imidazol-4-ylmethyl) ester] |  | reduced the number of lymphocytes in the peripheral blood

From patent US9120835B2, “Phosphoric acid ester derivatives” (Daiichi Sankyo Company Limited, priority 2011, dated 2015)
